Several values for one entry are separate records, joined by “and”; a condition that tells them apart may be missing. Equal values may be shown once. Read-outs that look alike come from different tables or passages of the source. One block for each compound: values may come before it.
What was measured:
[1] = molecular target: T1, drHDAC10 (Danio rerio, UniProt F1QCV2); assay: Proof of substrate conversion by HPLC; type: biochemical, Danio rerio (zebrafish); conditions: drHDAC10 0.027 mg/mL, up to 45 min
T1 sequence (F1QCV2 2-675 limits assumed): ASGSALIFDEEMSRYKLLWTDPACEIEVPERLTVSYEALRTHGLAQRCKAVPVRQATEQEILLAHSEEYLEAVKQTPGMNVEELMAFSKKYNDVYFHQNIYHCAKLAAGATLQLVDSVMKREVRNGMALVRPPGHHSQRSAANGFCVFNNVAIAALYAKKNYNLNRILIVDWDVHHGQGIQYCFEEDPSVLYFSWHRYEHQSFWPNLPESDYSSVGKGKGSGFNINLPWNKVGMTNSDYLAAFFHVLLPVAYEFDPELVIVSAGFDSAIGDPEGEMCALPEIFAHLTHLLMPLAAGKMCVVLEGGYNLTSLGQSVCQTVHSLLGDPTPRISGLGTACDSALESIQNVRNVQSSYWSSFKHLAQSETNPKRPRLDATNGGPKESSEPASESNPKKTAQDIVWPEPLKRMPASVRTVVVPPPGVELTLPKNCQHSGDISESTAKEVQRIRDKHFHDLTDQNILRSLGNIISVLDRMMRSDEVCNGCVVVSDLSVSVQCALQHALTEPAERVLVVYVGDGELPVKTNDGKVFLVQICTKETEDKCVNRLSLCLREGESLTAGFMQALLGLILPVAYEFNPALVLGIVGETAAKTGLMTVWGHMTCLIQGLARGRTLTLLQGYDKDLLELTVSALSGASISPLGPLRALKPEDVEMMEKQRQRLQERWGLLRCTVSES

[2] = molecular target: T2, HDAC10 (Homo sapiens, UniProt Q969S8); conditions: TR‐FRET and BRET displacement assays; cited from earlier work
T2 sequence (Q969S8 1-669): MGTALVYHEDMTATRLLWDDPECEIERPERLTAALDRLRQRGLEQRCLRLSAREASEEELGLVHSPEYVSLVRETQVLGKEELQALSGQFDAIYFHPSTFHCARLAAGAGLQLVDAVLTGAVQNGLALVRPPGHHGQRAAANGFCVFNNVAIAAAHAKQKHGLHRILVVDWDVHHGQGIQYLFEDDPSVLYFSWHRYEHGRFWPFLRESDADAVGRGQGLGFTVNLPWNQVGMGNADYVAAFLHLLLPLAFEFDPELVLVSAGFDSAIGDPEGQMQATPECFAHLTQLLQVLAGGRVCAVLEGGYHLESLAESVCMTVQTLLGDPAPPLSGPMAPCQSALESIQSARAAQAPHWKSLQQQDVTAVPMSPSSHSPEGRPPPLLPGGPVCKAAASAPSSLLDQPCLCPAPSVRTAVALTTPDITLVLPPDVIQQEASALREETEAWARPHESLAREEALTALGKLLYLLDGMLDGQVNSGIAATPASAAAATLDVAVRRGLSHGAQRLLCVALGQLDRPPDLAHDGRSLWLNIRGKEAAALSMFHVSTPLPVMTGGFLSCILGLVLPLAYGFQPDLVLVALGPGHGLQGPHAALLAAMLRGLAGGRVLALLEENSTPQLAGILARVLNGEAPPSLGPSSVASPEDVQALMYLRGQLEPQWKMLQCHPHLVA

[3] = molecular target: T1, drHDAC10; assay: NDA assay drHDAC10; conditions: for inhibition at 0.1 µM / inhibition at 1 µM: read-out: NDA assay drHDAC10 % inhibition
[4] = molecular target: T3, hHDAC6 (Homo sapiens, UniProt Q9UBN7); assay: hHDAC6 activity assay; type: biochemical
T3 sequence (Q9UBN7 1-1215): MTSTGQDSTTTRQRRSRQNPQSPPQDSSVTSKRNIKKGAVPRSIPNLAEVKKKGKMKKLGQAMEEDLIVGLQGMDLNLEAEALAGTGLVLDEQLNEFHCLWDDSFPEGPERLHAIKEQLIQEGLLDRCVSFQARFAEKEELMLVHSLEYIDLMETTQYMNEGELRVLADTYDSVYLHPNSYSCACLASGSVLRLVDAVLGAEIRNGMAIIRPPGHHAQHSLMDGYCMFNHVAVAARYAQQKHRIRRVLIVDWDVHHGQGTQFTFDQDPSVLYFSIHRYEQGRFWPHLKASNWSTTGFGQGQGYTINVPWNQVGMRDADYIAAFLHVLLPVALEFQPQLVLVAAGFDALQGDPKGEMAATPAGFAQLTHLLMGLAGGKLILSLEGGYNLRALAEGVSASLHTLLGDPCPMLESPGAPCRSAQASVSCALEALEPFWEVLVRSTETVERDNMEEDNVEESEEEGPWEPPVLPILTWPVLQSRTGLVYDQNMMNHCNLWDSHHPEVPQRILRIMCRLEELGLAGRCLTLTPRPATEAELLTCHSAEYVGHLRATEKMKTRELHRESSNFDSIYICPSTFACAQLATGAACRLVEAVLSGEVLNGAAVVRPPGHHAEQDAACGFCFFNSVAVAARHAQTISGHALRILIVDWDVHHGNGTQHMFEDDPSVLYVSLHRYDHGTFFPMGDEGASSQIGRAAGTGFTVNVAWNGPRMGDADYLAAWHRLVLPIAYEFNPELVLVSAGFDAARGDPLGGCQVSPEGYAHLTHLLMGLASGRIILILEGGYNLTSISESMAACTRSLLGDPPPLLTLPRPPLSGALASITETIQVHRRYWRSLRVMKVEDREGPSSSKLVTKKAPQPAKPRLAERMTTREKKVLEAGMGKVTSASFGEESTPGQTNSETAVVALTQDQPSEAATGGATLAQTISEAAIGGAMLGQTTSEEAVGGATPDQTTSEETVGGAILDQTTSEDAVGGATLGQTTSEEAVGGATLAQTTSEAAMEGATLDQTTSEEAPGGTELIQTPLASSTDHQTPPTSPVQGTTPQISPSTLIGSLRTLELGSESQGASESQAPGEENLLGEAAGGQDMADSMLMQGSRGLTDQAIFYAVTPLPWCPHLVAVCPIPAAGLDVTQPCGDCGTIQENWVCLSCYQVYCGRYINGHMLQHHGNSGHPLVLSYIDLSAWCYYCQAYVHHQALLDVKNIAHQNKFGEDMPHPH

[5] = molecular target: hHDAC1 (Homo sapiens, UniProt Q13547); type: biochemical
Sequence of hHDAC1 (Q13547 whole entry): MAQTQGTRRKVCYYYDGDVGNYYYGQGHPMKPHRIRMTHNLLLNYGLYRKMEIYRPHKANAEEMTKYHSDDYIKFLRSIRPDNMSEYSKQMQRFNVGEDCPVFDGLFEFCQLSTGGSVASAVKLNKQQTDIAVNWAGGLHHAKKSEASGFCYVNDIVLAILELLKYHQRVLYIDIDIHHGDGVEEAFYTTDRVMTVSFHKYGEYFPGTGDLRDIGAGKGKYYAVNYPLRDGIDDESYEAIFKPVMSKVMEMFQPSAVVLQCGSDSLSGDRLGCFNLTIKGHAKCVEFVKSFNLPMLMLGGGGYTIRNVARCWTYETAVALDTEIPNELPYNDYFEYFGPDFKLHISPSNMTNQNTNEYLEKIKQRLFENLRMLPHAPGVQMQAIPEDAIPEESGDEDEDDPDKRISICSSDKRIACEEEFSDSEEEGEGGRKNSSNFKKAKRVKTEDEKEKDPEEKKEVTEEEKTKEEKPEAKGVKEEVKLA

[6] = molecular target: T4, hHDAC8 (Homo sapiens, UniProt Q9BY41); assay: biochemical
T4 sequence (Q9BY41 1-377): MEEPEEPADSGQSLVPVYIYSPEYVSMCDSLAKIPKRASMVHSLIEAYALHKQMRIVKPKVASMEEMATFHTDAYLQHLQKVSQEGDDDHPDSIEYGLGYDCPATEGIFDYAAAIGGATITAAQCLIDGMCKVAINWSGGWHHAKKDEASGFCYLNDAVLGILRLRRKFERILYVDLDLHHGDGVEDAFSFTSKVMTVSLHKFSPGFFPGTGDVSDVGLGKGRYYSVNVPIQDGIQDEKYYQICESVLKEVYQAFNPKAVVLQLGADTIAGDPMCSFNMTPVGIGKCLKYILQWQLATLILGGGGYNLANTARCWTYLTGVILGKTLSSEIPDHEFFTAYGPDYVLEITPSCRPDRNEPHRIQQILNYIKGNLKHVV

[7] = molecular target: T2, HDAC10; assay: BRET assay for HDAC10; type: cell-based
[8] = molecular target: T2, HDAC10; assay: HDAC10 binding assay
[9] = system: acetyl Histone H3; assay: Western blotting, acetylation of histone H3 in HL60 cells; type: cell-based; conditions: Western blot, 48 a/b at 10 μM
[10] = system: acetyl tubulin; assay: Western blotting, acetylated tubulin in HL60 cells; type: cell-based; conditions: Western blot, 48 a/b at 10 μM
[11] = system: SK‐N‐BE(2)‐C cells; assay: LysoTracker assay, fluorescence microscopy; type: cell-based; conditions: 24 h after treatment
[12] = system: SK‐N‐BE(2)‐C cells; conditions: 7.5 μM, flow cytometry; ref 16b; cited from earlier work
[13] = system: SK‐N‐BE(2)‐C cells; assay: LysoTracker assay, flow cytometry; type: cell-based; conditions: for increase of LysoTracker signal normalized against DMSO control: concentration differs per compound (Table 8)
[14] = molecular target: T2, HDAC10; conditions: read-out: BRET assay (EC50); in‐cellulo; ref 32 (Géraldy et al.); cited from earlier work
[15] = @ 1 (concentration unit not given)
[16] = @ 10 (concentration unit not given)

- IC50 [3]: 30 ± 3 nM
- inhibition at 0.1 µM [3]: 82%
- inhibition at 1 µM [3]: > 95%
SMILES: CN1CCc2c(c3ccccc3n2Cc2ccc(C(=O)NO)cc2)C1 [tubastatin A]
- HDAC10 binding in displacement assays [2]: bound strongly

- hHDAC6 (ZMAL) % inhibition [4, 15]: <10 % @ 10 <10 % @ 1
- hHDAC6 (ZMAL) % inhibition [4, 16]: <10 % @ 10 <10 % @ 1
- hHDAC1 (ZMAL) % inhibition [5, 15]: < 10%
- hHDAC1 (ZMAL) % inhibition [5, 16]: 20%
- IC50 ([6]; hHDAC8 (FDL) IC50): 1970 ± 309 nM
- IC50 ([6]; inhibition of HDAC8): ~1000 nM
- EC50 [7]: 26 nM
- IC50 [8]: 5 nM
SMILES: O=C(NO)C1CCN(CCNCc2ccccc2)CC1 [48 a, 1‐(2‐(Benzylamino)ethyl)‐N‐hydroxypiperidine‐4‐carboxamide]
- effect on acetyl Histone H3 (class I, representative HDAC1) [9]: no increase
- effect on acetyl tubulin (HDAC6) [10]: no increase

- hHDAC6 (ZMAL) % inhibition [4, 15]: < 10%
- hHDAC6 (ZMAL) % inhibition [4, 16]: 11%
- hHDAC1 (ZMAL) % inhibition [5, 15]: < 10%
- hHDAC1 (ZMAL) % inhibition [5, 16]: 11%
- IC50 ([6]; inhibition of HDAC8): ~1000 nM
- EC50 [7]: 10 nM
- IC50 [8]: 2 nM
SMILES: O=C(NO)C1CCN(CCNCc2ccc(Br)cc2)CC1 [48 b, 1‐(2‐((4‐Bromobenzyl)amino)ethyl)‐N‐hydroxypiperidine‐4‐carboxamide]
- effect on acetyl Histone H3 (class I, representative HDAC1) [9]: no increase
- LysoTracker effect (relative signal intensity as compared to control) ([13]; 10 μM): 1.07±0.15
- LysoTracker effect (relative signal intensity as compared to control) ([13]; 20.0 μM): 1.04±0.05
- increase of LysoTracker signal normalized against DMSO control [13]: did not show an increase in signal
- effect on acetyl tubulin (HDAC6) [10]: no increase

- IC50 [3]: 134 ± 26 nM
- inhibition at 0.1 µM [3]: 45%
- inhibition at 1 µM [3]: > 95%
SMILES: CN(C)Cc1c(C(=O)NCCOc2ccc(C(=O)NO)cc2)oc2ccccc12 [abexinostat]
- accumulation of lysosomes, LysoTracker signal by fluorescence microscopy [11]: very strong response
- increase of LysoTracker signal normalized against DMSO control [13]: up to 3 fold

- inhibition at 0.1 µM [3]: 65%
- inhibition at 1 µM [3]: > 95%
SMILES: Cc1[nH]c2ccccc2c1CCNCc1ccc(/C=C/C(=O)NO)cc1 [panobinostat]
- accumulation of lysosomes, LysoTracker signal by fluorescence microscopy [11]: very strong response
- increase of LysoTracker signal normalized against DMSO control [13]: up to 3 fold

- IC50 [3]: 50 nM
- inhibition at 0.1 µM [3]: 60%
- inhibition at 1 µM [3]: 91%
SMILES: Cn1cc(CNCC2CCN(c3ncc(C(=O)NO)cn3)CC2)c2ccccc21 [quisinostat]
- EC50 [14]: 40 nM
- accumulation of lysosomes, LysoTracker signal by fluorescence microscopy [11]: very strong response
- increase of LysoTracker signal normalized against DMSO control [13]: up to 3 fold

Continued, compound first:

SMILES: CC(=O)NCCCCNCCC(=O)Nc1ccc2c(C)cc(=O)oc2c1 [Ac‐spermidine‐AMC, 3‐((4‐Acetamidobutyl)amino)‐N‐(4‐methyl‐2‐oxo‐2H‐chromen‐7‐yl)propanamide]
- maximal conversion by drHDAC10 (HPLC, fluorescamine derivatization) [1]: about 50%

SMILES: CCCCOc1ccc(CC(=O)NO)cc1 [bufexamac]
- inhibition at 0.1 µM [3]: 26%
- inhibition at 1 µM [3]: 64%

SMILES: Nc1ccccc1NC(=O)c1ccc(CNc2nccc(-c3cccnc3)n2)cc1 [mocetinostat]
- inhibition at 0.1 µM [3]: < 10%
- inhibition at 1 µM [3]: < 10%

SMILES: O=C(CCCCCCC(=O)Nc1ccc([C@H]2O[C@@H](CSc3nc(-c4ccccc4)c(-c4ccccc4)o3)C[C@@H](c3ccc(CO)cc3)O2)cc1)NO [tubacin]
- accumulation of lysosomes, LysoTracker signal by fluorescence microscopy [11]: No influence
- LysoTracker effect (relative signal intensity as compared to control) [12]: 1.1 and 1.1±0.07

SMILES: O=C(CCCCCCC(=O)Nc1ccccc1)NO [vorinostat]
- effect on acetyl Histone H3 (class I, representative HDAC1) [9]: robust hyperacetylation
- effect on acetyl tubulin (HDAC6) [10]: robust hyperacetylation
- IC50 [3]: 2000 ± 240 nM
- inhibition at 0.1 µM [3]: < 10%
- inhibition at 1 µM [3]: 43%

Reference: article PMC9308754 (Chembiochem, 2022)
